For one test, the target named is T1, METTL16 (Homo sapiens, UniProt Q86W50).
T1 sequence (Q86W50 1-562): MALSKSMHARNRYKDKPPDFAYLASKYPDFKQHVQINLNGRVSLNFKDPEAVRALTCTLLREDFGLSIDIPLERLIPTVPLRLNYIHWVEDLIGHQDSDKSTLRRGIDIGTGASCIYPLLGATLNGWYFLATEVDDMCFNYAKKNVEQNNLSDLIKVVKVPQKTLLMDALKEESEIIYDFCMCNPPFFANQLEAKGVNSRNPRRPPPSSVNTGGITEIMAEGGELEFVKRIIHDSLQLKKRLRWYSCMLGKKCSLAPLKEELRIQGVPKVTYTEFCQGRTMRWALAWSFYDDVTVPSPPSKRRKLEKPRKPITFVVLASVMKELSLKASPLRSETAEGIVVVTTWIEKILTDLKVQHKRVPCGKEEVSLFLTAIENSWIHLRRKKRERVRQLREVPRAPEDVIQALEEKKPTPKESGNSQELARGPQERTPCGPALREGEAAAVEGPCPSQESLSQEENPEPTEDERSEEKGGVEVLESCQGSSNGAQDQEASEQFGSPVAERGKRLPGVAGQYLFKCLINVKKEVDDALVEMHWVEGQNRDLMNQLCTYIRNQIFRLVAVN
The experiment in a line: METTL16 Assay (METTL16 biochemical assay). The note with it: read-out: METTL16 IC50. The method in brief: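 Radiometric methyltransferase reaction at ambient temperature in 20 mM HEPES pH 7.5, 50 mM KCl, 1 mM DTT, with 100 nM enzyme preincubated 5 min with compound. It was started with 50 nM 3′-biotinylated RNA, 200 nM 3H-SAM plus 800 nM cold SAM, run 20 min, then quenched with excess cold SAM. Product was captured on streptavidin flashplates and scintillation-counted.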

In test [1] the test system is m6A in cellular mRNA of MOLM-13 cells. The experiment in a line: m6A-mRNA LC-MS/MS Assay (m6A cellular assay). It is filed as cell-based. The note with it: Homo sapiens, MOLM-13, read-out: m^6A IC50. The protocol: Cells were harvested by centrifugation followed by mRNA extraction using DIRECT Dynabeads mRNA DIRECT kit (Life Technologies). mRNA was quantified on NanoDrop spectrophotometer (Thermo Fisher Scientific) and digested into single nucleosides using Nucleoside Digestion Mix (New England Biolabs). […] Quantification is performed in comparison with the standard curve, obtained from pure nucleoside standards (Selleck Chemicals) running with the same batch of samples. Percentage m^6A in cellular mRNA is calculated as 100*(m^6A/A).

A further test has as its system MOLM-13 cells. The experiment in a line: MOLM-13 96 Hour Cell Proliferation Assay. The note with it: Homo sapiens. It is filed as cell-based. The method in brief: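 MOLM-13 cells in RPMI 1640 with 10% FBS were plated overnight at 37 °C, then exposed to compound dilutions at 0.25% DMSO final for 96 h. Viability was read by CellTiter-Glo luminescence, normalised to staurosporine (100% death) and DMSO (0% death) controls, and IC50 was fitted by 4-parameter logistic regression.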

Data on 10 molecules can be found in patent publication US20230027361A1, “METTL3 MODULATORS” (priority 2019, published 2023).

Structures are written as SMILES.

As a reminder, the IC50 is the point on the concentration scale where inhibition reaches its midpoint. Turning to `CNc1ccc2ccc(OC[C@H]3O[C@@H](n4cc(C5CC5)c5c(N)ncnc54)[C@@H](F)[C@@H]3O)cc2n1` [I-29], the IC50 on METTL16 was more than 1 µM; in test [1] it was 1 to 10 µM; with MOLM-13 cells (MOLM-13, 96 h), less than 1 µM.
For `CNc1ccc2ccc(OC[C@H]3O[C@@H](n4cc(C5CCCC5)c5c(N)ncnc54)[C@H](O)[C@@H]3O)cc2n1` [I-33, (2R,3R,4S,5R)-2-(4-amino-5-cyclopentyl-7H-pyrrolo[2,3-d]pyrimidin-7-yl)-5-(((2-(methylamino)quinolin-7-yl)oxy)methyl)tetrahydrofuran-3,4-diol], in that order: more than 1 µM, less than 1 µM and less than 1 µM.
As for `CNc1ccc2ccc(OC[C@H]3O[C@@H](n4cc(CC5CC5)c5c(N)ncnc54)[C@@H](F)[C@@H]3O)cc2n1` [I-36], the IC50 at METTL16 is more than 1 µM; in test [1], 1 to 10 µM; in the test with MOLM-13 cells (MOLM-13, 96 h), less than 1 µM.
For `CNc1ccc2ccc(CC[C@H]3O[C@@H](n4cc(C5CCCC5)c5c(N)ncnc54)[C@H](O)[C@@H]3O)cc2n1` [I-39], in that order: more than 1 µM, 1 to 10 µM and less than 1 µM.
As for `CNc1ccc2ccc(OC[C@H]3O[C@@H](n4cc(-c5ccn(C)n5)c5c(N)ncnc54)[C@@H](F)[C@@H]3O)cc2n1` [I-12], the values for the IC50 (at METTL16; in test [1]; in the test on MOLM-13 cells) were more than 1 µM, less than 1 µM and less than 1 µM, respectively.
With `CNc1ccc2ccc(OC[C@H]3O[C@@H](n4cc(Br)c5c(N)ncnc54)[C@H](O)[C@@H]3O)cc2n1` [I-73], the IC50 at METTL16 was more than 1 µM; in test [1], 1 to 10 µM; with MOLM-13 cells (MOLM-13, 96 h), less than 1 µM.
In the same order, the values of `Cn1ccc(-c2cn([C@@H]3O[C@H](COc4ccc5ccc(N6CCC6)nc5c4)[C@@H](O)[C@@H]3F)c3ncnc(N)c23)n1` [I-149] are more than 1 µM, less than 1 µM and less than 1 µM.
In the case of `CNc1ccc2ccc(OC[C@H]3O[C@@H](n4cc(Cl)c5c(N)ncnc54)[C@H](O)[C@@H]3O)cc2n1` [I-70], the IC50 on METTL16 is more than 1 µM; in test [1] it was 1 to 10 µM; in the test with MOLM-13 cells (MOLM-13, 96 h), less than 1 µM.
For the molecule `CNc1ccc2ccc(OC[C@H]3O[C@@H](n4cc(CC5CCCC5)c5c(N)ncnc54)[C@H](O)[C@@H]3O)cc2n1` [I-23], the results for the IC50 (at METTL16; in test [1]) were more than 1 µM and 1 to 10 µM, respectively.
Regarding `CCNc1ccc2ccc(OC[C@H]3O[C@@H](n4cc(-c5cn(C)cn5)c5c(N)ncnc54)[C@@H](F)[C@@H]3O)cc2n1` [I-10], the results for the IC50 (on METTL16; in test [1]; in the test on MOLM-13 cells) were more than 1 µM, 1 to 10 µM and less than 1 µM, respectively.
